The values below are quoted from earlier work in patent publication US10196337B2, “Processes for the preparation of hydroxylated cyclohexyl compounds” (priority 2016, dated 2019).

pIC50: −log10 of the molar value.

The data set relates to A2780 ovarian cancer cell line. To be noted: compounds isolated from bark extract of Pleiogynium timorense, literature ref. 1, read-out: IC50 against the A2780 ovarian cancer cell line.
Broadly, the pIC50 is the negative decadic logarithm of the IC50, by convention in mol/L. For the compound pleiogenone B [compound 2], the negative-log IC50 (pIC50) is 6.15.

Regarding `CCCCCCCC/C=C\CCCCCCC[C@]1(O)C(=O)C=C[C@H](O)[C@H]1O` [compound 1, pleiogenone A], the negative logarithm of the IC50 (pIC50) was 6.10.

In the case of pleiogenone C [compound 3], the negative logarithm of the IC50 (pIC50) is 6.10.
